Data taken from patent publication US8304446B2, “Compounds” (Glaxo Group Limited, priority 2009, dated 2012).
Where a name gives a salt, the structure may show the parent alone.

What follows are molecules tested on CD4+ CCR4+ T cells (assay: Chemokine stimulated increases in cellular F-actin content). Conditions: Homo sapiens, T-cell, 0.5 h; PBMC from normal volunteers; antagonist 30 min at 37° C. before agonist for 15 sec; F-actin content by flow cytometry; read-out: pA2 (converted).
Assay type: cell-based
Procedure: Chemokine Stimulated Increases in Cellular F-Actin Content
Blood was taken from normal volunteers who had taken no medication within the previous ten days and mixed with 1/9 of the volume of 3.8% tri-sodium citrate solution. Chemokine-induced increases in the F-actin content of CD4+ CCR4+ T cells were measured by a modification of the method of Pilette et al. (Eur. Respir. J; 23: 876-884, 2004). Peripheral blood mononuclear cells (PBMC) were isolated by dextran sedimentation followed by Percoll density gradient centrifugation. The PBMCs were incubated with FITC-conjugated anti-human CD4 and PE-conjugated anti-CCR4 antibodies or appropriate isotype controls for 15 min. The cell suspensions were then centrifuged at 400 g for 10 min and the pellets resuspended in assay buffer (phenol red-free RPMI 1640 medium containing 10 mM HEPES and 0.1% bovine serum albumin) at 10^7/mL. The resulting cell suspension was incubated with antagonist or vehicle (0.1% DMSO) for 30 min at 37° C. before stimulation with the agonist for 15 sec. The assay was terminated by addition of 3% formaldehyde. The fixed cells were washed twice with PBS (centrifuging at 1000 g for 5 min to recover the cells) and incubated at room temperature with Alexa fluor-647 phalloidin (0.075 U/mL) in the presence of lyso-phosphatidylcholine (93.75 μg/ml) for 20 min to stain F-actin. The cells were washed once more with PBS and the relative F-actin content of the cells was measured flow cytometrically. The mean fluorescence intensity of 1000 CD4^+ CCR4^+ cells per sample was determined and expressed as a fraction of the mean intensity of the CD4^+ CCR4^− cells in that sample.
Work on CC[C@H](C)[C@@H](N)C(=O)NCc1cccc(Cn2nc(NS(=O)(=O)c3ccc(Cl)s3)c3c(OC)cccc32)c1 [Example 46, N^1-[(3-{[3-{[(5-Chloro-2-thienyl)sulfonyl]amino}-4-(methyloxy)-1H-indazol-1-yl]methyl}phenyl)methyl]-D-alloisoleucinamide] yielded a Kb of at most 126 nM. With COc1cccc2c1c(NS(=O)(=O)c1ccc(Cl)s1)nn2Cc1cccc(CNC(=O)[C@@H](N)Cc2ccccc2)c1 [Example 47, N-[(3-{[3-{[(5-Chloro-2-thienyl)sulfonyl]amino}-4-(methyloxy)-1H-indazol-1-yl]methyl}phenyl)methyl]-L-phenylalaninamide] the Kb was at most 126 nM. In the case of COc1cccc2c1c(NS(=O)(=O)c1ccc(Cl)s1)nn2Cc1cccc(CNC(=O)[C@@H](N)CCCCN)c1 [Example 49, N^1-[(3-{[3-{[(5-Chloro-2-thienyl)sulfonyl]amino}-4-(methyloxy)-1H-indazol-1-yl]methyl}phenyl)methyl]-L-lysinamide], the Kb is reported as at most 126 nM. Molecule COc1cccc2c1c(NS(=O)(=O)c1ccc(Cl)s1)nn2Cc1cccc(CNC(=O)[C@H]2CCN2)c1 [Example 50, (2R)—N-[(3-{[3-{[(5-Chloro-2-thienyl)sulfonyl]amino}-4-(methyloxy)-1H-indazol-1-yl]methyl}phenyl)methyl]-2-azetidinecarboxamide trifluoroacetate] has a Kb of at most 126 nM. Work on COc1ccc(Cn2nc(NS(=O)(=O)c3ccc(Cl)s3)c3c(OC)cccc32)cc1OC [Example 53, N-[1-{[3,4-Bis(methyloxy)phenyl]methyl}-4-(methyloxy)-1H-indazol-3-yl]-5-chloro-2-thiophenesulfonamide] yielded a Kb of at most 126 nM. COC[C@H](N)C(=O)NCc1cccc(Cn2nc(NS(=O)(=O)c3ccc(Cl)s3)c3c(OC)cccc32)c1 [Example 54, N^1-[(3-{[3-{[(5-Chloro-2-thienyl)sulfonyl]amino}-4-(methyloxy)-1H-indazol-1-yl]methyl}phenyl)methyl]-O-methylserinamide trifluoroacetate] was tested, and the Kb was at most 126 nM. CNC(C)(C)C(=O)NCc1cccc(Cn2nc(NS(=O)(=O)c3ccc(Cl)s3)c3c(OC)cccc32)c1 [Example 56, N1-[(3-{[3-{[(5-Chloro-2-thienyl)sulfonyl]amino}-4-(methyloxy)-1H-indazol-1-yl]methyl}phenyl)methyl]-N2,2-dimethylalaninamide formate] showed a Kb of at most 126 nM. Work on COc1cccc2c1c(NS(=O)(=O)c1ccc(Cl)s1)nn2Cc1cccc(CNS(C)(=O)=O)c1 [Example 58, 5-Chloro-N-{4-(methyloxy)-1-[(3-{[(methylsulfonyl)amino]methyl}phenyl)methyl]-1H-indazol-3-yl}-2-thiophenesulfonamide] yielded a Kb of at most 126 nM. In the case of COc1cccc2c1c(NS(=O)(=O)c1ccc(Cl)s1)nn2Cc1cccc(CNC(N)=O)c1 [Example 59, N-[1-[(3-{[(Aminocarbonyl)amino]methyl}phenyl)methyl]-4-(methyloxy)-1H-indazol-3-yl]-5-chloro-2-thiophenesulfonamide], the Kb is reported as at most 126 nM. With COc1cccc2c1c(NS(=O)(=O)c1ccc(Cl)s1)nn2Cc1cccc(CNC(=O)NC(C)(C)C)c1 [Example 60, 5-Chloro-N-[1-({3-[({[(1,1-dimethylethyl)amino]carbonyl}amino)methyl]phenyl}methyl)-4-(methyloxy)-1H-indazol-3-yl]-2-thiophenesulfonamide] the Kb was at most 126 nM. For COc1cccc2c1c(NS(=O)(=O)c1ccc(Cl)s1)nn2Cc1cccc(CNC(=O)NC(C)C)c1 [Example 61, 5-Chloro-N-[1-({3-[({[(1-methylethyl)amino]carbonyl}amino)methyl]phenyl}methyl)-4-(methyloxy)-1H-indazol-3-yl]-2-thiophenesulfonamide], the Kb was at most 126 nM. COc1cccc2c1c(NS(=O)(=O)c1ccc(Cl)s1)nn2Cc1ccc(S(N)(=O)=O)cc1 [Example 62, N-[1-{[4-(Aminosulfonyl)phenyl]methyl}-4-(methyloxy)-1H-indazol-3-yl]-5-chloro-2-thiophenesulfonamide] was tested, and the Kb was at most 126 nM. CNC(=O)Cc1cccc(Cn2nc(NS(=O)(=O)c3ccc(Cl)s3)c3c(OC)cccc32)c1 [Example 63, 2-(3-{[3-{[(5-Chloro-2-thienyl)sulfonyl]amino}-4-(methyloxy)-1H-indazol-1-yl]methyl}phenyl)-N-methylacetamide] gave a Kb of at most 126 nM. COc1cccc2c1c(NS(=O)(=O)c1ccc(Cl)s1)nn2Cc1cccc(C(N)=O)c1 [Example 64, 3-{[3-{[(5-Chloro-2-thienyl)sulfonyl]amino}-4-(methyloxy)-1H-indazol-1-yl]methyl}benzamide] was tested, and the Kb was at most 126 nM. With COc1cccc2c1c(NS(=O)(=O)c1ccc(Cl)s1)nn2Cc1cccc(C(=O)NCCN(C)C)c1 [Example 65, 3-{[3-{[(5-Chloro-2-thienyl)sulfonyl]amino}-4-(methyloxy)-1H-indazol-1-yl]methyl}-N-[2-(dimethylamino)ethyl]benzamide] the Kb was at most 126 nM. With COc1cccc2c1c(NS(=O)(=O)c1ccc(C)s1)nn2Cc1cccc(C(N)=O)c1 [Example 66, 3-[(4-(Methyloxy)-3-{[(5-methyl-2-thienyl)sulfonyl]amino}-1H-indazol-1-yl)methyl]benzamide] the Kb was at most 126 nM. With COc1cccc2c1c(NS(=O)(=O)c1ccc(Br)s1)nn2Cc1cccc(C(N)=O)c1 [Example 67, 3-{[3-{[(5-Bromo-2-thienyl)sulfonyl]amino}-4-(methyloxy)-1H-indazol-1-yl]methyl}benzamide] the Kb was at most 126 nM. With COc1ccc(F)c2c1c(NS(=O)(=O)c1ccc(Cl)s1)nn2Cc1cccc(C(N)=O)c1 [Example 68, 3-{[3-{[(5-Chloro-2-thienyl)sulfonyl]amino}-7-fluoro-4-(methyloxy)-1H-indazol-1-yl]methyl}benzamide] the Kb was at most 126 nM. With NC(=O)c1cccc(Cn2nc(NS(=O)(=O)c3ccc(Cl)s3)c3c(O)ccc(F)c32)c1 [Example 69, 3-[(3-{[(5-Chloro-2-thienyl)sulfonyl]amino}-7-fluoro-4-hydroxy-1H-indazol-1-yl)methyl]benzamide] the Kb was at most 126 nM. Work on COc1cccc2c1c(NS(=O)(=O)c1ccc(Cl)s1)nn2Cc1cccc(OCCN(C)C)c1 [Example 74, 5-Chloro-N-[1-[(3-{[2-(dimethylamino)ethyl]oxy}phenyl)methyl]-4-(methyloxy)-1H-indazol-3-yl]-2-thiophenesulfonamide] yielded a Kb of at most 126 nM. COc1cccc2c1c(NS(=O)(=O)c1ccc(Cl)s1)nn2Cc1ccc(OCCN(C)C)cc1 [Example 75, 5-Chloro-N-[1-[(4-{[2-(dimethylamino)ethyl]oxy}phenyl)methyl]-4-(methyloxy)-1H-indazol-3-yl]-2-thiophenesulfonamide] showed a Kb of at most 126 nM. Molecule COc1cc(Cn2nc(NS(=O)(=O)c3ccc(Cl)s3)c3c(OC)cccc32)ccc1OCCN(C)C [Example 76, 5-Chloro-N-[1-{[4-{[2-(dimethylamino)ethyl]oxy}-3-(methyloxy)phenyl]methyl}-4-(methyloxy)-1H-indazol-3-yl]-2-thiophenesulfonamide] has a Kb of at most 126 nM. With COc1cccc2c1c(NS(=O)(=O)c1ccc(Cl)s1)nn2Cc1cccc(S(N)(=O)=O)c1 [Example 77, N-[1-{[3-(aminosulfonyl)phenyl]methyl}-4-(methyloxy)-1H-indazol-3-yl]-5-chloro-2-thiophenesulfonamide] the Kb was at most 126 nM. For COc1cccc2c1c(NS(=O)(=O)c1ccc(Cl)s1)nn2Cc1cccc(CNC(=O)CCN)c1 [Example 78, N^1-[(3-{[3-{[(5-Chloro-2-thienyl)sulfonyl]amino}-4-(methyloxy)-1H-indazol-1-yl]methyl}phenyl)methyl]-β-alaninamide trifluoroacetate], the Kb was at most 126 nM. COc1cccc2c1c(NS(=O)(=O)c1ccc(Cl)s1)nn2Cc1cccc(CNC(=O)[C@@H](N)CCC(N)=O)c1 [Example 79, N^1-[(3-{[3-{[(5-Chloro-2-thienyl)sulfonyl]amino}-4-(methyloxy)-1H-indazol-1-yl]methyl}phenyl)methyl]-L-glutamamide formate salt] showed a Kb of at most 126 nM. In the case of COc1cccc2c1c(NS(=O)(=O)c1ccc(Cl)s1)nn2Cc1cccc(CNC(=O)C2(N)CCC2)c1 [Example 83, 1-Amino-N-[(3-{[3-{[(5-chloro-2-thienyl)sulfonyl]amino}-4-(methyloxy)-1H-indazol-1-yl]methyl}phenyl)methyl]cyclobutanecarboxamide trifluoroacetate], the Kb is reported as at most 126 nM. In the case of COc1cccc2c1c(NS(=O)(=O)c1ccc(Cl)s1)nn2Cc1cccc(CNC(=O)C2(N)CC2)c1 [Example 84, 1-Amino-N-[(3-{[3-{[(5-chloro-2-thienyl)sulfonyl]amino}-4-(methyloxy)-1H-indazol-1-yl]methyl}phenyl)methyl]cyclopropanecarboxamide trifluoroacetate], the Kb is reported as at most 126 nM. With COc1cccc2c1c(NS(=O)(=O)c1ccc(Cl)s1)nn2Cc1cccc(CNC(=O)CN(C)C)c1 [Example 86, N^1-[(3-{[3-{[(5-Chloro-2-thienyl)sulfonyl]amino}-4-(methyloxy)-1H-indazol-1-yl]methyl}phenyl)methyl]-N^2,N^2-dimethylglycinamide trifluoroacetate] the Kb was at most 126 nM.
